From patent US4254135A, “3-Amino-4-hydroxypyrrolidines” (A. H. Robins Company, Inc., priority 1979, dated 1981)
Where a name gives a salt, the structure may show the parent alone.

Experiment: Antitetrabenazine test (blocking of depressant effects induced in mice by intravenous tetrabenazine), antidepressant activity
Format: in vivo
Conditions: Mus musculus, ip, compound intraperitoneally, tetrabenazine intravenously
`CCN1C[C@@H](N(C(=O)c2ccc(Cl)cc2)c2ccccc2)[C@H](OC(=O)c2ccc(Cl)cc2)C1` (relative stereo) [Example 27, Trans-4-chlorobenzoic Acid Ester with 4-[(4-Chlorobenzoyl)(phenyl)amino]-1-ethyl-3-pyrrolidinol (E)-2-butenedioate (3:4)] gave an ED50 of 1.1 mg/kg.
With `CCN1C[C@@H](O)[C@H](N(C(=O)c2ccc(Cl)cc2)c2ccccc2)C1` (relative stereo) [Example 28, Trans-4-chloro-N-(1-ethyl-4-hydroxy-3-pyrrolindinyl)-N-phenylbenzamide Fumarate] the ED50 was 2.9 mg/kg.
Molecule `CCN1C[C@@H](O)[C@H](N(C(=O)c2ccccc2)c2ccccc2)C1` (relative stereo) [Example 29, Trans-N-(1-ethyl-4-hyroxy-3-pyrrolidinyl)-N-phenylbenzamide (E)-2-butenedioate] has an ED50 of 2.7 mg/kg.
Work on `CCN1C[C@@H](O)[C@H](N(C(=O)c2ccccc2)C2CCCCC2)C1` (relative stereo) [Example 50, Trans-4-[(benzoyl)(cyclohexyl)amino]-1-ethyl-3-pyrrolidinol Fumarate [1:1]] yielded an ED50 of 0.3 mg/kg.
